Reference: ChEMBL document CHEMBL3108766, “Cladosins A-E, hybrid polyketides from a deep-sea-derived fungus, Cladosporium sphaerospermum” (J Nat Prod, 2014)
pIC50: −log10 of the molar value.

Tested on: Influenza A virus
Assay: Antiviral activity against influenza A virus H1N1 infected in MDCK cells assessed as inhibition of virus-induced cytopathic effect after 48 hrs by crystal violet staining assay
Format: functional, organism-based

Row | Structure (SMILES) | pIC50
1 | CC(C)=C1NC(=O)/C(=C(N)\C=C\C[C@H](C)O)C1=O | 3.56
2 | NC(=O)c1ncn([C@@H]2O[C@H](CO)[C@@H](O)[C@H]2O)n1 [RIBAVIRIN] | 3.88
